The values that follow come from US20100168099A1, “1H-QUINOLIN-4-ONE COMPOUNDS, WITH AFFINITY FOR THE GABA RECEPTOR, PROCESSES, USES AND COMPOSITIONS” (FERRER INTERNACIONAL, S.A., priority 2006, published 2010).

The test system of one experiment is α1-GABAA receptor. As to the kind of experiment: Ligand-binding assay, radiolabeled flumazenil competition, cerebellum membranes. Also on record: species or system rat. The following applies: for Affinity for the α1-subunit of the GABAA receptor, % inhibition: rat cerebellum membranes, radiolabeled flumazenil 1 nM; for α1-/α2-selectivity (in words): compared with zolpidem; for affinity for α1-subunit of GABAA receptor (in words): compared with zolpidem where stated. Here is the method:
(§1) a) Ligand-binding Assays. Determination of the Affinity of Test Compounds for α1- and α2-GABAA, Receptor
(§2) Male Sprague-Dawley rats weighing 200-250 g at the time of experiment were used. After decapitation of the animal, the cerebellum (tissue that mostly contains α1-GABAA receptor) and spinal cord (tissue that mostly contains α2-GABAA receptor) were removed. The membranes were prepared according to the method by J. Lameh et al. (Prog. Neuro-Psychopharmacol. Biol. Psychiatry, 24, 979-991, 2000) and H. Noguchi et al. (Eur J Pharm, 434, 21-28, 2002) with slight modifications. Once the tissues weighed, they were suspended in 50 mM Tris.HCl (pH 7.4), 1:40 (v/v), or sucrose 0.32 M in the case of spinal cord, homogenized and then centrifuged at 20,000 g for 10 min at 7° C. The resulting pellet was resuspended under the same conditions and centrifuged again. The pellet was finally resuspended on a minimum volume and kept at −80° C. overnight. On the next day, the process was repeated until the final pellet was resuspended at a ratio of 1:10 (v/v) in the case of cerebellum and at a ratio of 1:5 (v/v) in the case of spinal cord.
(§3) Affinity was determined by competitive tests using radiolabeled flumazenil as ligand. The tests were performed according to the methods described by S. Arbilla et al. (Eur. J. Pharmacol., 130, 257-263, 1986); and Y. Wu et al. (Eur. J. Pharmacol., 278, 125-132, 1995) using 96-well microtiter plates. The membranes containing the study receptors, flumazenil (radiolabeling at a final concentration of 1 nM) and ascending concentrations of test compounds (in a total volume of 230 μL in 50 mM [pH 7.4] Tris.HCl buffer) were incubated. Simultaneously, the membranes were only incubated with the radiolabeled flumazenil (total binding, 100%) and in the presence of an elevated concentration of unradiolabeled flumazenil (non-specific binding, % estimation of radiolabeled ligand). The reactions started on adding the radiolabeled ligand followed by incubation for 60 minutes at 4° C. At the end of the incubation period, 200 μL of reaction were transferred to a multiscreen plate (Millipore) and filtered using a vacuum manifold and then washed three times with cold test buffer. The multiscreen plates were equipped with a GF/B filter that retained the membranes containing the receptors and the radiolabeled ligand which had been bound to the receptors. After washing, the plates were left till dry. Once dried, scintillation liquid was added and left under stirring overnight. The next day the plates were counted using a Perkin-Elmer Microbeta scintillation counter.
(§4) For analysis of the results the percentage of specific binding for every concentration of test compound was calculated as follows:
(§5) % specific binding=(X−N/T−N)×100
(§6) where, X: amount of bound ligand for every concentration of compound. T: total binding, maximum amount bound to the radiolabeled ligand. N: non-specific binding, amount of radiolabeled ligand bound in a non-specific way irrespective of the receptor used.
(§7) Every concentrations of compound were tested in triplicate and their mean values were used to determine the experimental values of % specific binding versus the concentration of compound. Affinity data are expressed as % inhibition at 10^−5M and 10^−7M concentrations.

The test system of a further experiment is α2-GABAA receptor. Description: Ligand-binding assay, radiolabeled flumazenil competition, spinal cord membranes. Also on record: species or system rat. The settings on record: for Affinity for the α2-subunit of the GABAA receptor, % inhibition: rat spinal cord membranes, radiolabeled flumazenil 1 nM. Here is the method:
as §1, §2, §3, §4, §5, §6, §7

Experiment [1] relates to spontaneous motor activity of male CD1 mice. As to the kind of experiment: In vivo predictive sedation-hypnosis test (traveled distance). The following applies: Mus musculus, ip, 0.5 h, 98 μmol/kg, single intraperitoneal dose, 30 minutes after dosing (first 5 min discarded), versus control. Here is the method: b) In Vivo Determination of Predictive Sedative-Hypnotic Action
The in vivo effects of these compounds were assessed by a predictive sedation-hypnosis test in mice (D. J. Sanger et al., Eur. J. Pharmacol., 313, 35-42, 1996; and G. Griebel et al., Psychopharmacology, 146, 205-213, 1999).
Groups of 5-8 male CD1 mice, weighing 22-26 g at the time of test, were used. The test compounds were administered in single equimolecular intraperitoneal doses, suspended in 0.25% agar with one drop of Tween in a volume of 10 mL/kg. Control animals received the vehicle alone. Using a Smart System (Panlab, S. L., Spain) the traveled distance in cm was recorded for each mouse at 5 min intervals during a period of 30 minutes after dosing. The inhibition percentage traveled distance of treated animals versus control animals (the first 5 min were discarded) was calculated.

With `C=CCN(CC=C)C(=O)Cn1cc(-c2ccccc2)c(=O)c2ccc(C)cc21` [Example 43, N,N-Diallyl-2-(7-methyl-4-oxo-3-phenyl-4H-quinolin-1-yl)-acetamide], the “Affinity for the α1-subunit of the GABAA receptor, % inhibition” value (“Affinity for the α1-subunit … % inhibition” below) in the experiment on α1-GABAA receptor (10^−5M) is 99.0%; in the experiment on α1-GABAA receptor (10^−7M), 49.9%. For the same compound, the “Affinity for the α2-subunit of the GABAA receptor, % inhibition” value (from here on “Affinity for the α2-subunit … % inhibition”) was determined as 88.2% in the experiment on α2-GABAA receptor (10^−5M) and 12.5% with α2-GABAA receptor (10^−7M). Besides, the “affinity for the α2-subunit of GABAA receptor (in words)” value with α2-GABAA receptor (compared with zolpidem where stated) is recorded as “higher affinity than prior art compound zolpidem”. In addition, the inhibition in vivo at 98 µmol/kg in experiment [1] was 91%.

Consider `CCCN(CCC)C(=O)Cn1cc(-c2ccc(OC)cc2)c(=O)c2ccc(C)cc21` [Example 36, 2-[3-(4-Methoxy-phenyl)-7-methyl-4-oxo-4H-quinolin-1-yl]-N,N-dipropyl-acetamide], for which the “Affinity for the α1-subunit … % inhibition” value is 95.9% with α1-GABAA receptor (10^−5M) and 20.3% with α1-GABAA receptor (10^−7M). In addition, the inhibition in vivo at 98 µmol/kg in experiment [1] is 92.1%.

For the compound `CCCN(CCC)C(=O)Cn1cc(-c2ccccc2)c(=O)c2ccccc21` [Example 47, 2-(4-Oxo-3-phenyl-4H-quinolin-1-yl)-N,N-dipropyl-acetamide], the “Affinity for the α1-subunit … % inhibition” value in the experiment on α1-GABAA receptor (10^−5M) is given as 88.1%; in the experiment on α1-GABAA receptor (10^−7M) it was 2.3%. Further, the “Affinity for the α2-subunit … % inhibition” value was determined as 68.9% in the experiment with α2-GABAA receptor (10^−5M) and 0.0% in the experiment on α2-GABAA receptor (10^−7M). Further, the inhibition in vivo at 98 µmol/kg in experiment [1] is 74.7%.

Consider `C=CCN(CC=C)C(=O)Cn1cc(-c2ccc(OC)cc2)c(=O)c2ccc(C)cc21` [Example 97, N,N-Diallyl-2-[3-(4-methoxy-phenyl)-7-methyl-4-oxo-4H-quinolin-1-yl]-acetamide], for which the “Affinity for the α1-subunit … % inhibition” value in the experiment on α1-GABAA receptor (10^−5M) is on record as 90.7%; in the experiment on α1-GABAA receptor (10^−7M), 4.9%. Further, the figures for the “Affinity for the α2-subunit … % inhibition” value in the experiment with α2-GABAA receptor (10^−5M) and with α2-GABAA receptor (10^−7M) were 62.0% and 0.0%, respectively. Moreover, the inhibition in vivo at 98 µmol/kg in experiment [1] is 76.8%.

Consider `CCN(CC)C(=O)Cn1cc(-c2ccccc2)c(=O)c2ccc(C)cc21` [Example 17, N,N-Diethyl-2-(7-methyl-4-oxo-3-phenyl-4H-quinolin-1-yl)-acetamide], for which the entries for the “Affinity for the α1-subunit … % inhibition” value with α1-GABAA receptor (10^−5M) and in the experiment on α1-GABAA receptor (10^−7M) were 91.4% and 0.7%, respectively. Moreover, the “Affinity for the α2-subunit … % inhibition” value with α2-GABAA receptor (10^−5M) is recorded as 70.1%; in the experiment with α2-GABAA receptor (10^−7M), 0.0%. Besides, the inhibition in vivo at 98 µmol/kg in experiment [1] was 81.5%.

As for `Cc1ccc2c(=O)c(-c3ccccc3)cn(CC(=O)N3CCCC3)c2c1` [Example 18, 7-Methyl-1-(2-oxo-2-pyrrolidin-1-yl-ethyl)-3-phenyl-1H-quinolin-4-one], the “Affinity for the α1-subunit … % inhibition” value stood at 86.2% in the experiment on α1-GABAA receptor (10^−5M) and 7.5% with α1-GABAA receptor (10^−7M). In the experiment on α1-GABAA receptor, the “α1-/α2-selectivity (in words)” value is on record as “higher α1-/α2-selectivity than the most selective therapeutically used compound zolpidem”. In addition, the “Affinity for the α2-subunit … % inhibition” value was found to be 66.3% with α2-GABAA receptor (10^−5M) and 0.0% in the experiment on α2-GABAA receptor (10^−7M). Further, the inhibition in vivo at 98 µmol/kg in experiment [1] was 84.5%.

Turning to `C=CCN(CC=C)C(=O)Cn1cc(-c2ccccc2)c(=O)c2ccc(Br)cc21` [Example 129, N,N-Diallyl-2-(7-bromo-4-oxo-3-phenyl-4H-quinolin-1-yl)-acetamide], the “Affinity for the α1-subunit … % inhibition” value in the experiment on α1-GABAA receptor (10^−5M) is listed as 99.7%; in the experiment on α1-GABAA receptor (10^−7M), 85.2%. Also, the “affinity for α1-subunit of GABAA receptor (in words)” value (shortened to “affinity for α1-subunit”) in the experiment on α1-GABAA receptor is recorded as “higher affinity”. Also, the inhibition in vivo at 98 µmol/kg in experiment [1] is 93.5%.

As to `CCCN(CC1CC1)C(=O)Cn1cc(-c2ccccc2)c(=O)c2ccc(C)cc21` [Example 39, N-Cyclopropylmethyl-2-(7-methyl-4-oxo-3-phenyl-4H-quinolin-1-yl)-N-propyl-acetamide], the “Affinity for the α1-subunit … % inhibition” value in the experiment on α1-GABAA receptor (10^−5M) stood at 98.8%; in the experiment on α1-GABAA receptor (10^−7M), 56.3%. In addition, the “affinity for α1-subunit” value in the experiment on α1-GABAA receptor is listed as “higher affinity”. Further, the “Affinity for the α2-subunit … % inhibition” value in the experiment with α2-GABAA receptor (10^−5M) is 93.4%; with α2-GABAA receptor (10^−7M), 28.5%. Also, the inhibition in vivo at 98 µmol/kg in experiment [1] is 92.5%.

On to `Cc1ccc2c(=O)c(-c3ccccc3)cn(CC(=O)N3CCCCC3)c2c1` [Example 15, 7-Methyl-1-(2-oxo-2-piperidin-1-yl-ethyl)-3-phenyl-1H-quinolin-4-one], for which the “Affinity for the α1-subunit … % inhibition” value with α1-GABAA receptor (10^−5M) was 87.3%; with α1-GABAA receptor (10^−7M), 0.0%. In addition, the “α1-/α2-selectivity (in words)” value with α1-GABAA receptor was “higher α1-/α2-selectivity than the most selective therapeutically used compound zolpidem”. For the same compound, the “Affinity for the α2-subunit … % inhibition” value in the experiment with α2-GABAA receptor (10^−5M) was determined as 13.3%; in the experiment on α2-GABAA receptor (10^−7M), 0.0%. In addition, the inhibition in vivo at 98 µmol/kg in experiment [1] is 84.7%.

For `Cc1ccc2c(=O)c(-c3ccccc3)cn(CC(=O)N3CC(C)OC(C)C3)c2c1` (centres unmarked) [Example 32, 1-[2-(2,6-Dimethyl-morpholin-4-yl)-2-oxo-ethyl]-7-methyl-3-phenyl-1H-quinolin-4-one], the figures for the “Affinity for the α1-subunit … % inhibition” value in the experiment with α1-GABAA receptor (10^−5M) and in the experiment on α1-GABAA receptor (10^−7M) were 86.2% and 18.4%, respectively. For the same compound, the “α1-/α2-selectivity (in words)” value in the experiment with α1-GABAA receptor is “higher α1-/α2-selectivity than the most selective therapeutically used compound zolpidem”. Besides, the entries for the “Affinity for the α2-subunit … % inhibition” value in the experiment on α2-GABAA receptor (10^−5M) and in the experiment with α2-GABAA receptor (10^−7M) were 55.4% and 0.0%, respectively. For the same compound, in experiment [1], the inhibition in vivo at 98 µmol/kg is 90%.

With `Cc1ccc2c(=O)c(-c3ccccc3)cn(CC(=O)c3oc(C)nc3C)c2c1` [Example 33, 1-[2-(2,4-Dimethyl-oxazol-5-yl)-2-oxo-ethyl]-7-methyl-3-phenyl-1H-quinolin-4-one], the figures for the “Affinity for the α1-subunit … % inhibition” value in the experiment on α1-GABAA receptor (10^−5M) and in the experiment on α1-GABAA receptor (10^−7M) were 97.0% and 33.9%, respectively. In addition, in experiment [1], the inhibition in vivo at 98 µmol/kg is 91.7%.

Turning to `Cc1cccc2c1c(=O)cc(-c1ccccc1)n2CC(=O)N1CCOCC1` [Example 1, 5-Methyl-1-(2-morpholin-4-yl-2-oxo-ethyl)-2-phenyl-1H-quinolin-4-one], the “Affinity for the α1-subunit … % inhibition” value in the experiment on α1-GABAA receptor (10^−5M) is 99.5%; with α1-GABAA receptor (10^−7M) it was 57.9%. Besides, in the experiment with α1-GABAA receptor, the “affinity for α1-subunit” value is reported as “higher affinity”.

`Cc1cccc2c1c(=O)cc(-c1ccccc1)n2CC(=O)N1CCCC1` [Example 11, 5-Methyl-1-(2-oxo-2-pyrrolidin-1-yl-ethyl)-2-phenyl-1H-quinolin-4-one]: the entries for the “Affinity for the α1-subunit … % inhibition” value in the experiment on α1-GABAA receptor (10^−5M) and in the experiment with α1-GABAA receptor (10^−7M) were 99.9% and 52.6%, respectively. Besides, the “affinity for α1-subunit” value in the experiment on α1-GABAA receptor is reported as “higher affinity”.

For the compound `CCCN(CCC)C(=O)Cn1cc(-c2ccccc2)c(=O)c2ccc(Br)cc21` [Example 44, 2-(7-Bromo-4-oxo-3-phenyl-4H-quinolin-1-yl)-N,N-dipropyl-acetamide], the “Affinity for the α1-subunit … % inhibition” value was 99.8% in the experiment with α1-GABAA receptor (10^−5M) and 61.9% in the experiment on α1-GABAA receptor (10^−7M). In addition, the “affinity for α1-subunit” value with α1-GABAA receptor was “higher affinity”. For the same compound, the inhibition in vivo at 98 µmol/kg in experiment [1] is 95.2%.

Usually inhibition in vivo stands for the drop in the measured response relative to a control, in per cent.
